One experiment has as its target T1, human PI3Kα protein (Homo sapiens, UniProt P42336).
T1 construct: purchased Carna Biosciences, Inc; host or cells: baculovirus expression system
The experiment is described as follows: PI3Kα enzyme assay (ADP-Glo). Format: biochemical. The following applies: read-out: PI3Kα enzyme inhibitory activity. Here is the method:
In a PI3Kα enzyme assay, a product (manufactured by Carna Biosciences, Inc.) obtained by biotinylating a human PI3Kα protein produced by using a baculovirus expression system was used. In addition, in the detection of enzyme activity, ADP-GLO KINASE ASSAY (trade name, manufactured by PROMEGA Corporation) was used.
10 μL of a reaction liquid (4.5 nmol/L PI3Kα, 40 mmol/L Tris-HCl, 20 mmol/L MgCl2, 0.1% BSA, pH 7.5) including the human PI3Kα protein and a test compound having a predetermined concentration was allowed to stand at room temperature for 15 minutes. Then, 5 μL of a mixture liquid of L-α-phosphatidylinositol 4,5-diphosphate (PIP2) (manufactured by Sigma-Aldrich Co. LLC.) and ATP (manufactured by Sigma-Aldrich Co. LLC.), which are substrates, was added thereto such that final concentrations thereof became 50 μmol/L and 100 μmol/L, respectively, and an enzyme reaction was performed by allowing to stand at 25° C. for 60 minutes.
After the reaction, the enzyme reaction was stopped by adding 15 μL of an ADP-GLO REAGENT (trade name, manufactured by PROMEGA Corporation) thereto and allowing to stand at room temperature for 60 minutes. Then, 30 μL of a KINASE DETECTION REAGENT (trade name, manufactured by PROMEGA Corporation) was added thereto, followed by allowing to stand at room temperature for 40 minutes, and ADP produced by the enzyme reaction was quantified by emission intensity.
ENVISION (trade name, manufactured by Perkin Elmer Inc.) was used for the measurement of the emission intensity.
(§1) The inhibitory activities of the compounds were evaluated using IC50 (50% inhibitory concentration). The IC50 was calculated using XLFIT (trade name, manufactured by ID Business Solutions).

Experiment [1] addresses T2, GST fusion human ERK2 protein (Homo sapiens, UniProt P28482).
T2 construct: purchased Carna Biosciences, Inc; host or cells: E. coli expression system
The experiment is described as follows: ERK2 enzyme assay (2). The class given is biochemical. The following applies: read-out: ERK2 enzyme inhibitory activity (2). Here is the method:
In an ERK2 enzyme assay, GLUTATHIONE S-TRANSFERASE (GST) FUSION HUMAN ERK2 PROTEIN (manufactured by Carna Biosciences, Inc.), which was produced by using an E. coli expression system, was used.
12 μL of a reaction liquid (1.25 nmol/L ERK2, 100 mmol/L Hepes, 10 mmol/L MgCl2, 1.5 mmol/L DTT, 0.003% Brij35, pH 7.5) including ERK2 protein and a test compound having a predetermined concentration was allowed to stand at room temperature for 15 minutes. Then, 3 μL of a mixture liquid of FL-PEPTIDE8 (5-FAM-IPTSPITTTYFFFKKK-COOH) (manufactured by Caliper Life Sciences), which is substrate peptide, and ATP (manufactured by Sigma-Aldrich Co. LLC.) was added thereto such that the final concentrations thereof became 4.25 μmol/L and 1 mmol/L, respectively, and an enzyme reaction was performed by allowing to stand at 25° C. for 120 minutes.
After the reaction, the enzyme reaction was stopped by adding 30 μL of a reaction stopper liquid (100 mmol/L HEPES, 11.2 mmol/L EDTA, 5.6% Brij35, pH 7.5) including a 0.5% COATING REAGENT 8 (trade name, manufactured by Perkin Elmer Inc.) thereto. Then, phosphorylated peptide and non-phosphorylated peptide were separated using LABCHIP EZ READER (trade name, manufactured by Caliper Life Sciences), and the porportion of the phosphorylated peptide was quantified.
as §1

Setting [2] is: 4.5 nmol/L PI3Kα, PIP2 50 μmol/L, ATP 100 μmol/L.

Consider 35 compounds from patent publication US9783536B2, “Nitrogen-containing heterocyclic compound or salt thereof” (FUJIFILM Corporation, priority 2013, dated 2017).

Where a name gives a salt, the structure may show the parent alone. Read-outs that look alike come from different tables or passages of the source. Where only a bound is given, the exact number is not on record here.

T2 sequence (P28482 whole entry, the tested form may be a part): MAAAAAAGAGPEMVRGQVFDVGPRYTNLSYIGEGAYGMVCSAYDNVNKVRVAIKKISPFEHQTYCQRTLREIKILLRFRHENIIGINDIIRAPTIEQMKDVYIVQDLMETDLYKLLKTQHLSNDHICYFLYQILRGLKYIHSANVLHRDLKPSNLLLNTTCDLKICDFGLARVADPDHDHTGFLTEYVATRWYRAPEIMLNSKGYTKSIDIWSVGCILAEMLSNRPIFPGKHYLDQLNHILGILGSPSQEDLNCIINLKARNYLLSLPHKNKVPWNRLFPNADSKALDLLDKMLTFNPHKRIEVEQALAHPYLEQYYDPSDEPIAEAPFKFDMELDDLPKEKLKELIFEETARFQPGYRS
T1 sequence (P42336 whole entry): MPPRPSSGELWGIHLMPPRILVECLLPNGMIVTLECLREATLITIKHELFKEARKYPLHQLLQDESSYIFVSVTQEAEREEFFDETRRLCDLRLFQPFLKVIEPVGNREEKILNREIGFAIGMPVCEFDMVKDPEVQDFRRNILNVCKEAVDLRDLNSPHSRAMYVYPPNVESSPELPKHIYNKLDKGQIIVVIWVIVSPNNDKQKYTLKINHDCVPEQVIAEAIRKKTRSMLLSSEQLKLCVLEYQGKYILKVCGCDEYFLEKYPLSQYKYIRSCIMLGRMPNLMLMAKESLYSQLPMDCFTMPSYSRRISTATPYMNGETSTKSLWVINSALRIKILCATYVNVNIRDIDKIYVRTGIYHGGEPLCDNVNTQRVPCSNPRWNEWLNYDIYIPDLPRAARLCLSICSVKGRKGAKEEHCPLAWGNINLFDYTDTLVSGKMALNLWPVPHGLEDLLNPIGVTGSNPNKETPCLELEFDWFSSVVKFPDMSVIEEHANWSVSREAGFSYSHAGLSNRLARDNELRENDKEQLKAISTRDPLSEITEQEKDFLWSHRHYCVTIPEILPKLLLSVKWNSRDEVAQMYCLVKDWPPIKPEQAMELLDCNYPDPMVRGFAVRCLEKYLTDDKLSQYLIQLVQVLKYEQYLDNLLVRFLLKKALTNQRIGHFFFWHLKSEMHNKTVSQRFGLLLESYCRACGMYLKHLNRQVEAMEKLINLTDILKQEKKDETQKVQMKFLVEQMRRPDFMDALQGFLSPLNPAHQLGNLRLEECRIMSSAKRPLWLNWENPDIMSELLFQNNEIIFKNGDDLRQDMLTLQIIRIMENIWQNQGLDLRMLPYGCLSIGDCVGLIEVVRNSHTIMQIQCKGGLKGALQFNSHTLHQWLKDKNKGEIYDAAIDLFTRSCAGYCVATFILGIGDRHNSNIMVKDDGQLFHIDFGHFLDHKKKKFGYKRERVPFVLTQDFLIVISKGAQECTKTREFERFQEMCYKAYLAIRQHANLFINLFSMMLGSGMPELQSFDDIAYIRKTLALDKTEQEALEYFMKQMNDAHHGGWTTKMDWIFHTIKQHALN
T1 sequence (P27986 whole entry partner): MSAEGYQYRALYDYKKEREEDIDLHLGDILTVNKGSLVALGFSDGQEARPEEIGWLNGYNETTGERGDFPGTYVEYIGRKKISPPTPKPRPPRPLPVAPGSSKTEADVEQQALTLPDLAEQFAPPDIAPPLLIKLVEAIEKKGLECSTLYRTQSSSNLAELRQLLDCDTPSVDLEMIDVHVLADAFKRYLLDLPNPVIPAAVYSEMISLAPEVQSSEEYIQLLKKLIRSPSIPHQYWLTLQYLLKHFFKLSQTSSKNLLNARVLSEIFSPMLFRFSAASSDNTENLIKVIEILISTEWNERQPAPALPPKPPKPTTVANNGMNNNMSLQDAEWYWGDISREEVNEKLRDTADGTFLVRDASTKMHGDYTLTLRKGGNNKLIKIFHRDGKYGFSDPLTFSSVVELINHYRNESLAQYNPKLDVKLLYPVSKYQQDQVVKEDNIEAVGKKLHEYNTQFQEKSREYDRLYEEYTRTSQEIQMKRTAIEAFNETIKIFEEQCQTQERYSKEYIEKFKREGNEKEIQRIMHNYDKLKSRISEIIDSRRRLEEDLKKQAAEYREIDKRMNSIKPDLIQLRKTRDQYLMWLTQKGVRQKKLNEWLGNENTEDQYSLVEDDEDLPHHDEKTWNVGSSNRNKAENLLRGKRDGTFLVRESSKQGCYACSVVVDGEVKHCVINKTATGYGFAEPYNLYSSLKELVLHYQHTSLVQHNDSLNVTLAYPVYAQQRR

On to `CC(C)c1nnc(Nc2ccc3nccc(Nc4ccccn4)c3n2)s1` [Example 0005], for which the IC50 at human PI3Kα protein (setting [2]) was < 1000 nM.

As to `CCOC(=O)c1csc(Nc2ccc3ncc(-c4cnn(C)c4)cc3n2)n1` [Example 0034, ethyl 2-((7-(1-methyl-1H-pyrazol-4-yl)-1,5-naphthyridin-2-yl)amino)thiazole-4-carboxylate], the IC50 on human PI3Kα protein (setting [2]) fell in the range of 1000 to 10000 nM. Same read-out and setting: to `Cc1nnc(Sc2ccc3ncc(-c4cnn(C)c4)cc3n2)s1` [Example 0047, 2-methyl-5-((7-(1-methyl-1H-pyrazol-4-yl)-1,5-naphthyridin-2-yl)thio)-1,3,4-thiadiazole] belongs < 1000 nM.

Regarding `COc1cncc(Nc2cnc3ccc(Nc4cncc(OC)c4)nc3c2)c1` [Example 0155, N^2,N^7-bis(5-methoxypyridin-3-yl)-1,5-naphthyridine-2,7-diamine], on human PI3Kα protein (setting [2]), the IC50 was 1000 to 10000 nM. Take `CC(C)c1cnnc(Nc2ccc3nccc(-c4ccncc4)c3n2)c1` [Example 0410]: the IC50 (at human PI3Kα protein; in experiment [1] (ERK2 enzyme assay (2))) was < 1000 nM throughout.

Take `Cc1cccc(Cn2cc(-c3cnc4ccc(Nc5cc(C(C)C)cnn5)nc4c3)cn2)n1` [Example 0411, N-(5-isopropylpyridazin-3-yl)-7-(1-((6-methylpyridin-2-yl)methyl)-1H-pyrazol-4-yl)-1,5-naphthyridine-2-amine]: the IC50 (on human PI3Kα protein; in experiment [1] (ERK2 enzyme assay (2))) was < 1000 nM throughout. Consider `COc1cccc(Cn2cc(-c3cnc4ccc(Nc5cc(C(C)C)cnn5)nc4c3)cn2)n1` [Example 0412, N-(5-isopropylpyridazin-3-yl)-7-(1-((6-methoxypyridin-2-yl)methyl)-1H-pyrazol-4-yl)-1,5-naphthyridine-2-amine], for which the IC50 (on human PI3Kα protein; in experiment [1] (ERK2 enzyme assay (2))) was < 1000 nM throughout. In the case of `CC(C)c1cnnc(Nc2ccc3ncc(-c4cnn(C(C)c5ccccn5)c4)cc3n2)c1` (stereo not drawn) [Example 0414], the IC50 (at human PI3Kα protein; in experiment [1] (ERK2 enzyme assay (2))) was < 1000 nM each time. As for `CC(C)c1cnnc(Nc2ccc3ncc(-c4cnn(CCCN5CCCCC5=O)c4)cc3n2)c1` [Example 0415, 1-(3-(4-(6-((5-Isopropylpyridazin-3-yl)amino)-1,5-naphthyridin-3-yl)-1H-pyrazol-1-yl)propyl)piperidin-2-one], the IC50 (on human PI3Kα protein; in experiment [1] (ERK2 enzyme assay (2))) was < 1000 nM each time. For `CC(C)c1cnnc(Nc2ccc3ncc(-c4cnn(CCC(=O)N5CCCCC5)c4)cc3n2)c1` [Example 0416], the IC50 (on human PI3Kα protein; in experiment [1] (ERK2 enzyme assay (2))) was < 1000 nM throughout.

In the case of `CC(C)c1cnnc(Nc2ccc3ncc(-c4cnn(CCCN5CCC(F)(F)CC5)c4)cc3n2)c1` [Example 0419, 7-(1-(3-(4,4-Difluoropiperidin-1-yl)propyl)-1H-pyrazol-4-yl)-N-(5-isopropylpyridazin-3-yl)-1,5-naphthyridine-2-amine], the IC50 (on human PI3Kα protein; in experiment [1] (ERK2 enzyme assay (2))) was < 1000 nM in each case.

On to `CC(=O)Nc1cc(-c2cnc3ccc(Nc4cc(C(C)C)cnn4)nc3c2)ccn1` [Example 0421, N-(4-(6-((5-isopropylpyridazin-3-yl)amino)-1,5-naphthyridin-3-yl)pyridin-2-yl)acetamide], for which the IC50 (at human PI3Kα protein; in experiment [1] (ERK2 enzyme assay (2))) was < 1000 nM throughout. `CNc1cc(-c2cnc3ccc(Nc4cc(C(C)C)cnn4)nc3c2)ccn1` [Example 0423, N-(5-isopropylpyridazin-3-yl)-7-(2-(methylamino)pyridin-4-yl)-1,5-naphthyridine-2-amine hydrochloride]: the IC50 (on human PI3Kα protein; in experiment [1] (ERK2 enzyme assay (2))) was < 1000 nM each time. As for `CC(C)c1cnnc(Nc2ccc3ncc(-c4cnn(CCCN5CCN(C)CC5=O)c4)cc3n2)c1` [Example 0425], the IC50 (at human PI3Kα protein; in experiment [1] (ERK2 enzyme assay (2))) was < 1000 nM throughout. With `CC(C)c1cnnc(Nc2ccc3ncc(-c4cnn(CCCN5CCC(F)(F)C5)c4)cc3n2)c1` [Example 0427], the IC50 (on human PI3Kα protein; in experiment [1] (ERK2 enzyme assay (2))) was < 1000 nM throughout. With `CC(C)c1cnnc(Nc2ccc3ncc(-c4cnn(CCCN5CC[C@H](F)C5)c4)cc3n2)c1` [Example 0428], the IC50 (on human PI3Kα protein; in experiment [1] (ERK2 enzyme assay (2))) was < 1000 nM in each case. `CC(C)c1cnnc(Nc2ccc3ncc(-c4cnn(CCCN5CC[C@@H](F)C5)c4)cc3n2)c1` [Example 0429]: the IC50 (on human PI3Kα protein; in experiment [1] (ERK2 enzyme assay (2))) was < 1000 nM throughout. `CC(C)c1cnnc(Nc2ccc3ncc(-c4cnn(CCCN5CCN(C(=O)N(C)C)CC5)c4)cc3n2)c1` [Example 0433]: the IC50 (at human PI3Kα protein; in experiment [1] (ERK2 enzyme assay (2))) was < 1000 nM throughout. With `CC(=O)N1CCN(CCCn2cc(-c3cnc4ccc(Nc5cc(C(C)C)cnn5)nc4c3)cn2)CC1` [Example 0434], the IC50 (on human PI3Kα protein; in experiment [1] (ERK2 enzyme assay (2))) was < 1000 nM each time. As to `CC(=O)N1[C@H](C)CN(CCCn2cc(-c3cnc4ccc(Nc5cc(C(C)C)cnn5)nc4c3)cn2)C[C@@H]1C` [Example 0435], the IC50 (at human PI3Kα protein; in experiment [1] (ERK2 enzyme assay (2))) was < 1000 nM in each case. Take `Cc1nccn1-c1cnc2ccc(Nc3cc(C(C)C)cnn3)nc2c1` [Example 0513]: the IC50 in experiment [1] (ERK2 enzyme assay (2)) is < 1000 nM. Consider `Cn1cc(-c2cnc3ccc(Nc4nccn4C)nc3c2)cn1` [Example 0516, N-(1-methyl-1H-imidazol-2-yl)-7-(1-methyl-1H-pyrazol-4-yl)-1,5-naphthyridine-2-amine], for which the IC50 on human PI3Kα protein lay in the range of 10000 to 50000 nM. Turning to `Cc1ccnc(Nc2ccc3ncc(-c4cnn(C)c4)cc3n2)c1` [Example 0546], the IC50 on human PI3Kα protein is < 1000 nM. Turning to `Cn1cc(-c2cnc3ccc(Nc4cc(-c5ccccc5)cnn4)nc3c2)cn1` [Example 0570], the IC50 in experiment [1] (ERK2 enzyme assay (2)) was < 1000 nM. As for `CC(C)c1cnnc(Nc2ccc3ncc(C(=O)N(C)C)cc3n2)c1` [Example 0643], the IC50 in experiment [1] (ERK2 enzyme assay (2)) is 10000 to 50000 nM. Same read-out and setting: to `CC(C)c1cnnc(Nc2ccc3ncc(C(=O)NCc4ccccc4)cc3n2)c1` [Example 0647, N-benzyl-6-((5-isopropylpyridazin-3-yl)amino)-1,5-naphthyridine-3-carboxamide] belongs 1000 to 10000 nM; to `CC(C)c1cnnc(Nc2ccc3ncc(C(=O)Nc4ccccc4)cc3n2)c1` [Example 0668], 1000 to 10000 nM. For `Cn1cc(-c2cnc3ccc(Nc4ccccc4N)nc3c2)cn1` [Example 0675, N^1-(7-(1-methyl-1H-pyrazol-4-yl)-1,5-naphthyridin-2-yl)benzene-1,2-diamine], the IC50 on human PI3Kα protein is 10000 to 50000 nM. Still for that read-out and setting: to `Cn1cc(-c2cnc3ccc(Nc4cccc(N)c4)nc3c2)cn1` [Example 0677, N^1-(7-(1-methyl-1H-pyrazol-4-yl)-1,5-naphthyridin-2-yl)benzene-1,3-diamine] belongs 1000 to 10000 nM; to `CC(C)c1cnnc(Nc2ccc3ncc(-c4cn(C)nc4-c4ccnc(N(C)C)c4)cc3n2)c1` [Example 0753, 7-(3-(2-(Dimethylamino)pyridin-4-yl)-1-methyl-1H-pyrazol-4-yl)-N-(5-isopropylpyridazin-3-yl)-1,5-naphthyridine-2-amine], < 1000 nM. As to `Cn1cc(-c2cnc3ccc(Nc4cc(-c5ccncc5)cnn4)nc3c2)cn1` [Example 0763], the IC50 in experiment [1] (ERK2 enzyme assay (2)) was < 1000 nM. Turning to `Cn1cc(-c2cnc3ccc(Nc4ccncn4)nc3c2)cn1` [Example 0775, 7-(1-Methyl-1H-pyrazol-4-yl)-N-(pyrimidin-4-yl)-1,5-naphthyridine-2-amine], the IC50 at human PI3Kα protein was < 1000 nM. As for `Cn1cc(-c2cnc3ccc(Nc4cc(C(C)(C)C)on4)nc3c2)cn1` [Example 0776, 5-(tert-Butyl)-N-(7-(1-methyl-1H-pyrazol-4-yl)-1,5-naphthyridin-2-yl)isoxazole-3-amine], at human PI3Kα protein, the IC50 was in the range of 10000 to 50000 nM. For `Cc1ccc(S(=O)(=O)NC2CN(c3cnc4ccc(Nc5cc(C(C)C)cnn5)nc4c3)C2)cc1` [Example 0866], the IC50 on human PI3Kα protein fell in the range of 1000 to 10000 nM.

As for `CC(C)c1cnnc(Nc2ccc3ncc(-c4cnn(C)c4)c(O)c3n2)c1` [Example 0915, 6-((5-Isopropylpyridazin-3-yl)amino)-3-(1-methyl-1H-pyrazol-4-yl)-1,5-naphthyridine-4-ol], the IC50 in experiment [1] fell in the range of 10000 to 50000 nM.
